Where two headings read alike, the source gives them in different places.
Key:
[1] = target: host enzyme SAH hydrolase; set-up: method as in PMID 26010585; conditions: in vitro; read-out: 50% inhibitory concentration, SAH hydrolase; cited from earlier work
[2] = test system: rCHIKV G230R+K299E and rCHIKV G230R+K299E+*524R; format: cell-based, Chikungunya virus; conditions: 10 μM, both mutant viruses, MOI 1

Compound: Nc1ncnc2c1ncn2C1C(F)=C(CCO)C(O)C1O (stereo not drawn) [FHNA, 6′-fluoro-homoneplanocin A]
- IC50 [1]: 0.91 µM
- Infectious progeny titers lower than untreated controls ([2]; 12 hpi): at least 1.5 log10
- Infectious progeny titers lower than untreated controls ([2]; 24 hpi): ≥ 1.2 log10

— article PMC7179274, “6′-β-Fluoro-Homoaristeromycin and 6′-Fluoro-Homoneplanocin A Are Potent Inhibitors of Chikungunya Virus Replication through Their Direct Effect on Viral Nonstructural Protein 1” (Antimicrobial Agents and Chemotherapy, 2020)
